Active and inactive are the calls of the source. No cut-off for these calls is given here.
Experiments:
[1] = Solubility of the compound in DMSO; type: physicochemical
HeLa [2] = assay: Cytotoxicity against human HeLa cells after 72 hrs by MTT assay; type: functional, cell-based
SiHa = assay: Cytotoxicity against human SiHa cells after 72 hrs by MTT assay; type: functional, cell-based
SW480 = assay: Cytotoxicity against human SW480 cells after 72 hrs by MTT assay; type: functional, cell-based; details: SW480, 72 h
HeLa [3] = assay: Induction of apoptosis in human HeLa cells assessed as disruption of mitochondrial membrane potential at 50 uM after 72 hrs using JC1 dye by fluorescence microscope analysis; type: functional, cell-based
HeLa [4] = assay: Cell cycle arrest in human HeLa cells assessed as apoptotic cells at 50 uM after 48 hrs using propidium iodide staining by flow cytometry (reference value: 7.3%); type: functional
HeLa [5] = assay: Cell cycle arrest in human HeLa cells assessed as accumulation at G2/M phase at 50 uM after 48 hrs using propidium iodide staining by flow cytometry (reference value: 14.3%); type: functional
HeLa [6] = assay: Induction of apoptosis in human HeLa cells assessed as formation of DNA fragmentation at 50 uM after 72 hrs using ethidium bromide staining by 2% agarose gel electrophoresis assay; type: functional, cell-based
HeLa [7] = assay: Induction of apoptosis in human HeLa cells assessed as cleaved caspase-3 level at […] after 48 hrs by Western blot analysis; type: functional, cell-based
HeLa [8] = assay: Induction of apoptosis in human HeLa cells assessed as disruption of mitochondrial membrane potential at […] after 72 hrs using JC1 dye by fluorescence microscope analysis; type: functional, cell-based

SMILES | solubility [1] | IC50 (HeLa [2]) [µM] | IC50 (SiHa) [µM] | IC50 (SW480) [µM] | further results
O=C(c1ccccc1)c1cc(Cl)ccc1-n1sc2ccccc2c1=O | soluble | – | – | – | –
COc1ccccc1-n1sc2ccccc2c1=O | soluble | – | – | – | –
CC(C)Cn1sc2ccccc2c1=O | – | 31.8 | 38.1 | 47.8 | –
O=c1c2ccccc2sn1-c1ccccc1[N+](=O)[O-] | soluble | – | – | – | –
O=c1c2ccccc2sn1C1CCCCC1 | – | 24.8 | 48.3 | 48.8 | Activity (HeLa [3]): Active; Activity (HeLa [4]): 23.4%; Activity (HeLa [5]): 26.6%; Activity (HeLa [6]): Active
C[C@H](c1ccccc1)n1sc2ccccc2c1=O | – | 43.7 | 32.3 | 43.1 | –
O=c1c2ccccc2sn1-c1ccccc1 | soluble | – | – | – | –
C[C@@H](c1ccccc1)n1sc2ccccc2c1=O | – | 30.9 | 35.9 | 41.8 | –
O=c1c2ccccc2sn1Cc1ccc2c(c1)OCO2 | – | 37.3 | 29.3 | 46.3 | –
CC(=O)O[C@H]1C(=O)[C@@]2(C)[C@H]([C@H](OC(=O)c3ccccc3)[C@]3(O)C[C@H](OC(=O)[C@H](O)[C@@H](NC(=O)c4ccccc4)c4ccccc4)C(C)=C1C3(C)C)[C@]1(OC(C)=O)CO[C@@H]1C[C@@H]2O | – | – | – | – | Activity (HeLa [7]): Active; Activity (HeLa [8]): Active
COc1ccc(-n2sc3ccccc3c2=O)cc1 | soluble | – | – | – | –
Cc1ccc(-n2sc3ccccc3c2=O)cc1 | soluble | – | – | – | –

Reference: ChEMBL document CHEMBL3217628, “Benzisothiazolones arrest the cell cycle at the G2/M phase and induce apoptosis in HeLa cells” (Medchemcomm, 2013)
